The values that follow are results of earlier work, collected in US20190000898A1, “COMBINING ADENOVIRUS AND CHEMOTHERAPEUTIC AGENTS FOR TREATING CANCER” (priority 2016, published 2019).

For one data set, the system named is unresectable MPM. The settings on record: patients; p=0.02.
The subject of data set [1] is syngeneic pancreatic tumors. The settings on record: immune-competent hamsters.

With `N.N.[Cl][Pt][Cl]` [Cisplatin], in the data set on unresectable MPM, the median survival is on record as 9 months. In the case of `O=P1(N(CCCl)CCCl)NCCCO1` (centres unmarked) [cyclophosphamide], the “antitumor efficacy (tumor growth)” value in data set [1] is “did not result in significant reduction of tumor growth”.
